In US8366935B2, “Phyllanthus extract” (Phytrix Inc., priority 2008, dated 2013):

Molecular target: T1, gp120 (Human immunodeficiency virus type 1 group M subtype B, UniProt P03375)
T1 construct: loaded with 25 μl of 6 mg/ml of gp120 (25 μM) in PBS pH 7.2
Test: biochemical
Type: binding, HIV
Procedure: If needed, experiments were repeated within a smaller concentration range (i.e., 10 trials from 0.01 to 0.10 mmol). A total volume of either 50 μl was used in each analysis. Analytes were loaded in the opposite side of the membrane and equilibrium was obtained after incubation of 12 hrs at 23° C. The association constants were determined by non-linear regression analysis. Concentrations of compounds analysed were determined by HPLC analysis by comparison against an internal control (diethyl-7-dimethylaminocoumarineacetamide). HPLC controls were run with an equimolar amount of control and analyte. The relative concentrations of each analyte were determined at both sides of the membrane. […] Each data point was recollected after regeneration of the dialysis setup by exposing the non-protein containing face of the membrane to 5 ml of PBS pH 7.2 twice for 4 to 10 hrs at 23° C.

SMILES | Kd
Cc1c(O)c(O)cc2c1C(/C(=C/C(=O)O)C(=O)OC1C3COC(=O)c4cc(O)c(O)c(O)c4-c4c(cc(O)c(O)c4O)C(=O)OC1C(O)C(OC(=O)c1cc(O)c(O)c(O)c1)O3)C(C(=O)O)OC2=O (stereo not shown) [Repandusinic acid] | 22 nM
O=C(O[C@@H]1O[C@@H]2COC(=O)c3cc(O)c(O)c(O)c3-c3c(cc(O)c(O)c3O)C(=O)O[C@H]([C@H]1O)[C@@H]2O)c1cc(O)c(O)c(O)c1 [Corilagin] | 120 nM
O=C(O)c1cc(O)c(O)c(O)c1 [Gallic acid] | ≥ 100000 nM
O=C1O[C@H]2[C@@H]3OC(=O)c4cc(O)c(O)c(O)c4-c4c(cc(O)c(O)c4O)C(=O)OC[C@H]2O[C@@H](OC(=O)c2cc(O)c(O)c(O)c2)[C@@H]3OC(=O)c2cc(O)c(O)c3c2[C@@H]2C1=CC(=O)[C@](O)(O3)C2(O)O [Geraniin] | 76 nM
